Experimental findings from patent US7179814B2, “Agents for controlling plant pests” (priority 1998, dated 2007) are described below.

For experiment [1], the system named is Botrytis cinerea. The experiment in a line: Botrytis test (bean)/protective. Conditions: single active compound. Type of experiment: in vivo. As to the method:
(§1) To produce a suitable preparation of active compound, 1 part by weight of active compound or active compound combination is mixed with the stated amounts of solvent and emulsifier, and the concentrate is diluted with water to the desired concentration, or a commercial formulation of active compound or active compound combination is diluted with water to the desired concentration.
To test for protective activity, young plants are sprayed with the active compound preparation at the stated application rate. After the spray coating has dried on, 2 small pieces of agar colonized by Botrytis cinerea are placed onto each leaf. The inoculated plants are placed in a dark chamber at approximately 20° C. and 100% relative atmospheric humidity.
2 days after the inoculation, the size of the disease spots on the leaves is evaluated. 0% means an efficacy which corresponds to that of the control, whereas an efficacy of 100% means that no infection is observed.

Experiment [2] has as its system green peach aphid. The experiment in a line: Myzus test (cabbage leaf dip). Conditions: concentration 0.00016 %. Type of experiment: in vivo, Myzus (green peach aphid). On the procedure: (§2) To produce a suitable preparation of active compound, 1 part by weight of an active compound or an active compound combination is mixed with the stated amounts of solvent and emulsifier, and the concentrate is diluted with water to the desired concentration.
Cabbage leaves (Brassica oleracea) which are heavily infested by the green peach aphid are treated by being dipped into the active compound preparation of the desired concentration.
After the desired period of time, the kill in % is determined. 100% means that all aphids have been killed; 0% means that none of the aphids have been killed.

Experiment [3] concerns Diabrotica balteata larvae in soil. Put plainly: Critical concentration test/soil insects, Diabrotica balteata. The format is in vivo. The note with it: Diabrotica balteata, 168 h, 7 days after infestation, read-out: Kill in %. On the procedure: To produce a suitable preparation of active compound, 1 part by weight of the active compound or the active compound mixture is mixed with the stated amounts of solvent and emulsifier, and the concentrate is diluted with water to the desired concentration.
The active compound preparation is mixed intimately with soil. Here, the concentration of the active compound in the preparation is almost irrelevant; only the amount by weight of active compound or active compound mixture per volume unit of soil, which is stated in ppm (mg/l), matters.
Soil is filled into 0.5 l pots and these are allowed to stand at 20° C. Immediately after preparation, 5 pre-germinated maize corns are placed into each pot. After 2 days, the test insects are placed into the treated soil. After a further 7 days, the kill in % is determined. 100% means that all test insects have been killed; 0% means that none of the test insects have been killed.

The subject of experiment [4] is Puccinia recondita. Put plainly: Puccinia test (wheat)/protective. The format is in vivo. The note with it: 62.5 g/ha, 10 days after inoculation. As to the method:
as §1
To test for protective activity, young plants are sprayed with the active compound preparation at the stated application rate. After the spray coating has dried on, the plants are sprayed with a conidia suspension of Puccinia recondita. The plants remain in an incubation cabin at 20° C. and 100% relative atmospheric humidity for 48 hours.
The plants are then placed in a greenhouse at a temperature of approximately 20° C. and a relative atmospheric humidity of 80% to promote the development of rust pustules.
Evaluation is carried out 10 days after the inoculation. 0% means an efficacy which corresponds to that of the control, whereas an efficacy of 100% means that no infection is observed.

The test system of experiment [5] is green rice leaf hopper (Nephotettix cincticeps). The experiment in a line: Nephotettix test (rice seedling dip). Type of experiment: in vivo. On the procedure:
as §2
Rice seedlings (Oryza sativa) are treated by being dipped into the active compound preparation of the desired concentration and are populated with the green rice leaf hopper (Nephotettix cincticeps) while the leaves are still moist.
After the desired period of time, the kill in % is determined. 100% means that all the leaf hoppers have been killed; 0% means that none of the leaf hoppers have been killed.

In the case of `N#C/N=C1/SCCN1Cc1ccc(Cl)nc1` [formula (I)], the Efficacy in % in experiment [1] (10 g/ha, 2 days after inoculation) was determined as 0%; in experiment [1] (40 g/ha), 0%; in experiment [1] (500 g/ha), 0%; in experiment [4], 0%. The Kill in % is reported as 25% in experiment [2], 0% in experiment [5] (concentration 0.000032 %) and 35% in experiment [5] (concentration 0.00016 %). Further, the pest or weed control at 1.25 ppm in experiment [3] (1.25 ppm in soil) was 0%. Moreover, the pest or weed control at 2.5 ppm in experiment [3] (2.50 ppm in soil) was 40%. Besides, in experiment [3] (5.00 ppm in soil), the pest or weed control at 5 ppm worked out at 90%.
